Test results from paper PMC10291556 (Journal of Medicinal Chemistry, 2023).
Where two headings read alike, the source gives them in different places.

Key:
tumor cells = settings: cited from earlier work
HeLa cells [1] = test: HMGB1 release (ELISA); format: cell-based, human; settings: 1×, 2×, 3× IC50, 20 h
Description: (B) Extracellular level of HMGB1. […] The data in panels A, B, and C are shown as a mean of 4–5 measurements ± SD. Statistical significance from untreated control was determined with the Student t-test (*p ≤ 0.05, **p ≤ 0.01, and ^#p ≤ 0.001).
HeLa cells were seeded in 24-well plates at a density of 10^4 cells/well and grown overnight. The medium was removed, and a fresh medium (DMEM, 1% BSA, no FBS) containing indicated concentrations of tested complexes was added (300 μL). Following a 20 h treatment, medium samples were withdrawn, and the HMGB1 content was determined using an HMGB1 ELISA Kit (IBL international) following the instructions for use. Cell counts in corresponding wells were determined using Automated Cell Counter (Bio-Rad). HMGB1 concentrations were normalized to cell counts and to the value of untreated control. The experiment was performed twice with duplicate readings.

HeLa cells [2] = test: Calreticulin exposure (flow cytometry); format: cell-based, human; settings: 3× IC50, 16–18 h, DAPI-negative cells
Description: Following the treatment, the cells were harvested (trypsin), washed with FACS buffer (PBS, BSA 1%, and FBS 2%), and incubated with Alexa Fluor 488 Anti-Calreticulin antibody for 40 min at 4 °C. The buffer was removed (CFG, 300 g, 3 min) and replaced with FACS buffer containing DAPI (1 μg mL^–1, 20 min), and the cells were analyzed with flow cytometry (BD FACS Verse) and FCS Express 6 (DeNovo Software, Glendale, CA). Calreticulin fluorescence histograms were analyzed in the DAPI-negative (intact membrane) cell population.

HeLa cells [3] = test: ATP secretion; format: cell-based, human; settings: 1× and 3× IC50, 24 h
Description: HeLa cells were seeded in 24-well plates at a density of 10^4 cells/well, grown overnight, and then treated with the tested complexes for 24 h. Aliquots of culture medium samples were withdrawn, centrifugated (500g, 3 min), and processed with ATP Bioluminescence Assay Kit CLS II, Roche. Briefly, 50 μL of cell-free medium samples were added to a 96-well flat white plate, and an equal volume of luciferase reagent was added. The luminescence was measured immediately on a plate reader (SPARK, Tecan). The blank (no ATP) was subtracted from the raw data. ATP concentrations were obtained from the standard curve and normalized to cell counts and control. The data are shown as MEAN of 4–5 independent measurements.

COX in HeLa cells = test: COX activity assay (kit) in treated cells; format: cell-based, human; settings: 24 h, 1× IC50,72h, vs untreated control
Description: The results are expressed relative to the COX activity of untreated control.
HeLa cells were seeded in 6-well plates at a density of 10^5 cells/well and incubated overnight. The cells were treated with the tested compounds at concentrations corresponding to 1× IC50. Following a 24 h treatment, the cells were lyzed with radioimmunoprecipitation assay (RIPA) buffer supplemented with proteinase inhibitors on ice for 10 min. The extracts were cleared with centrifugation (12,000g/5 min), and protein content was determined using Bradford assay. COX activity was determined with a COX Activity Assay Kit (Abcam). 6 μg of protein was used in the reaction. The experiment was set up according to the manufacturer’s instructions. The fluorescence (Ex/Em 535/587 nm) was read in a kinetic mode, and the COX inhibition was expressed as a percentage of the activity of the untreated control.

MCF-7 = test: MTT antiproliferative assay, 72 h; format: cell-based, human; settings: read-out: IC50 MCF-7
Description: (§1) Cells were treated with the tested compounds in a final volume of 200 μL/well. […] Calbiochem, Darmstadt, Germany) was added, and the cells were incubated for an additional 2–4 h. The medium was removed, and the insoluble formazan product was dissolved in 100 μL/well DMSO. The absorbance was read at 570 nm (vs 620 nm) using an Absorbance Reader (SUNRISE TECAN SCHOELLER). The read values were converted to the percentage of control. […] All experiments were made in triplicate.

A2780cisR = test: MTT antiproliferative assay, 72 h; format: cell-based, human; settings: read-out: IC50 A2780cisR
Description: as §1

A2780 = test: MTT antiproliferative assay, 72 h; format: cell-based, human; settings: read-out: IC50 A2780
Description: as §1

HeLa = test: MTT antiproliferative assay, 72 h; format: cell-based, human
Description: as §1

HCT-116 = test: MTT antiproliferative assay, 72 h; format: cell-based, human; settings: read-out: IC50 HCT-116
Description: as §1

MDA-MB-231 = test: MTT antiproliferative assay, 72 h; format: cell-based, human; settings: read-out: IC50 MDA-MB-231
Description: as §1

[4] = MTT assay in non-cancerous fibroblasts, 72 h; format: cell-based; settings: MRC-5 cells (non-cancerous fibroblasts), non-cancerous human fibroblasts, 72 h incubation, mean ± SD
Description: as §1, with “The absorbance was read at 570 nm (vs 620 nm) using an Absorbance Reader (SUNRISE TECAN SCHOELLER).” left out

HeLa cells [5] = test: Mitochondrial membrane potential (TMRE, flow cytometry); format: cell-based, human; settings: 10× IC50, 1 h, vs untreated control
Description: Figure 4 Changes in the mitochondrial membrane potential Δψm in HeLa cells. The cells were treated with Pt compounds at the concentrations corresponding to 10× IC50 for 1 h and subsequently stained with TMRE. The fluorescence was measured by flow cytometry. Data represents mean ± SD from three independent experiments, *p < 0.01.
HeLa cells were seeded (6-well plates, 3 × 10^5 cells/well), grown overnight, and then treated with the tested compounds for 1 h. The medium was removed, and a fresh medium containing TMRE (Thermo Fisher Scientific) at a final concentration of […] in 500 μL was added. The cells were incubated for 30 min at 37 °C and then harvested using trypsin. TMRE fluorescence was measured with a fluorescence-activated cell sorting (FACS) Verse flow cytometer (Becton Dickinson), and the data were analyzed using the ModFit LT 4.1 (Verity Software House) software. The experiment was performed in triplicate.

oral cancer xenograft = test system: oral cancer xenograft; design: method as in PMID 33305724; settings: BALB/c nude mice; cited from earlier work
HeLa cells [6] = test: Cellular accumulation of platinum (ICP-MS); format: cell-based, human
Description: Briefly, 3 × 10^6 cells were seeded in 100 mm culture dishes and grown overnight. The cells were exposed to the tested complexes at indicated concentrations for indicated periods. […] The pellets were digested using the microwave acid (HCl) digestion system (CEM Mars). The platinum quantity taken up by the cells was determined by inductively coupled plasma mass spectrometry (ICP–MS). All experiments were performed in triplicate.

[7] = test system: HeLa cells / Thp-1/PMA macrophages; test: Phagocytosis of treated HeLa cells by Thp-1/PMA macrophages; format: cell-based, human; settings: HeLa treated 24 h at 1× or 3× IC50,72h, co-incubated 2.5 h with Thp-1/PMA macrophages
Description: Figure 8 Hallmarks of ICD. (A) Extracellular ATP levels in HeLa cell supernatants. […] (B) Extracellular level of HMGB1. […] (C) Calreticulin exposure to the cell surface. […] The surface calreticulin exposure was determined in 4′,6-diamidino-2-phenylindole dihydrochloride (DAPI)-negative cell population. Relative fluorescence intensity was calculated as the median fluorescence of the population of treated cells/median fluorescence of untreated control cells. The data in panels A, B, and C are shown as a mean of 4–5 measurements ± SD. Statistical significance from untreated control was determined with the Student t-test (*p ≤ 0.05, **p ≤ 0.01, and ^#p ≤ 0.001). (D) Quantitative evaluation of phagocytosis of HeLa cells treated with the investigated compounds by human Thp-1/PMA macrophages (analyzed by flow cytometry). […] Error bars are the SEMs calculated from three independent experiments. The stars denote a significant difference from untreated control (*p ≤ 0.05, **p ≤ 0.01) as calculated by the […] Student t-test. […]
Human monocytic leukemia cells Thp-1 (obtained from American Type Culture Collection, ATCC) were differentiated into macrophages with phorbol 12-myristate 13-acetate (PMA, 100 nM) for 24 h. […] Phagocytosis was evaluated using flow cytometry (BD FACSVerse), and data were analyzed with FCS Express 7 (DeNovo software; Glendale, CA). […]

MRC-5 = test: MTT assay in non-cancerous fibroblasts, 72 h; format: cell-based; settings: non-cancerous human fibroblasts, 72 h incubation, mean ± SD
Description: as §1, with “The absorbance was read at 570 nm (vs 620 nm) using an Absorbance Reader (SUNRISE TECAN SCHOELLER).” left out

[8] = test system: peritoneal carcinomatosis; design: method as in PMID 20535526; settings: BD-IX rats; cited from earlier work
[9] = Partition coefficient, shake-flask method; format: physicochemical; settings: octanol/water
Description: The “shake flask” method was used to measure the partition coefficients (P) of platinum compounds. The compounds were dissolved in octanol-saturated water (OSW) containing 200 mM NaCl. […] After careful separation of the layers with a fine-tip pipet, the Pt content in individual phases was determined by flameless atomic absorption spectrometry. The partition coefficients were calculated as the concentration ratio of the compound in the octanol layer to that in the aqueous layer, log P = log([Pt]WSO/[Pt]OSW).

[10] = test system: DNA isolated from HeLa cells; test: Pt associated with DNA isolated from treated HeLa cells; format: cell-based, human; settings: 1 µM compound, 6 h, mean ± SD
Text: page 16: Table S1: […] concentration of tested compounds for 6 ha. […] Figure S19: A. Representative histograms obtained by flow cytometric analysis of calreticulin exposure in HeLa cells treated with indicated compounds. B. An example of gating DAPI negative population. Only DAPI-negative cells were taken for the evaluation.

[11] = MTT, 72 h incubation, mean ± SD

In the case of O=C1[O][Pt]2([NH][C@@H]3CCCC[C@H]3[NH]2)[O]C1=O [oxaliplatin], the tumor cell phagocytosis (tumor cells) is listed as “does not promote tumor cell phagocytosis”.

For O=C([O-])Cc1ccccc1Nc1c(Cl)cccc1Cl.[Na+] [DCF, sodium {2-[(2,6-dichlorophenyl)amino]phenyl}-acetate, reference compound], the HMGB1 secretion (HeLa cells [1]) was “effective as well”, the externalization of calreticulin (HeLa cells [2]) was “effective as well” and the ATP secretion (HeLa cells [3]) was “effective as well”. For the same compound, the “inhibition of COX activity” value (COX in HeLa cells) was “Inhibition of COX activity was also observed”, the IC50 (MCF-7; Homo sapiens, MCF7, 72 h) was 259 ± 17 µM and the IC50 (A2780cisR; Homo sapiens, A2780cisR, 72 h) was 138 ± 8 µM. It also gave an IC50 (A2780; Homo sapiens, A2780, 72 h) of 238 ± 19 µM, an IC50 (HeLa; Homo sapiens, HeLa, 72 h, read-out: IC50 HeLa) of 250 ± 22 µM and an IC50 (HeLa; Homo sapiens, HeLa, read-out: HeLa (biological data CSV)) of 240 ± 15 µM. The IC50 (HCT-116; Homo sapiens, HCT-116, 72 h) was 211 ± 10 µM, the IC50 (MDA-MB-231; Homo sapiens, MDA-MB-231, 72 h) was 187 ± 15 µM and the IC50 at 72 h [4] was 445 ± 36 µM. The “mitochondrial membrane potential Δψm (TMRE fluorescence)” value (HeLa cells [5]) was “approximately the same effect”.

For Cc1c(C)c2cccnc2c2ncccc12.N[C@H]1CCCC[C@@H]1N.[Pt] [complex 1, [Pt(1S,2S-diaminocyclohexane)(5,6-dimethyl-1,10-phenanthroline)]^2+], the “in vivo anticancer effect, oral cancer xenograft” value (oral cancer xenograft) is given as “potent anticancer effect”, the HMGB1 secretion (HeLa cells [1]) is given as “effective as well” and the externalization of calreticulin (HeLa cells [2]) is given as “effective as well”. The “cellular uptake 0.1 μM/24 h” value (HeLa cells [6]; 0.1 μM complex, 24 h) was 4.4 ± 0.5 ng Pt/10^6 cells, the “cellular uptake 1 μM/6 h” value (HeLa cells [6]; 1 μM complex, 6 h) was 13 ± 3 ng Pt/10^6 cells and the “cellular uptake 10 μM/6 h” value (HeLa cells [6]; 10 μM complex, 6 h) was 72 ± 2 ng Pt/10^6 cells. For the same compound, the ATP secretion (HeLa cells [3]) was “effective as well”, the “increase of tumor-cell phagocytosis” value [7] was “roughly as effective as its Pt(IV) analogues 2–4” and the IC50 (MCF-7; [11]) was 0.7 ± 0.1 µM. For the same compound, the IC50 (A2780cisR; [11]) was 0.06 ± 0.01 µM, the IC50 (A2780; [11]) was 0.19 ± 0.04 µM and the IC50 (HeLa; MTT, 72 h incubation, mean ± SD, read-out: IC50 HeLa) was 0.37 ± 0.01 µM. The IC50 (HCT-116; [11]) was 0.08 ± 0.01 µM, the IC50 (MDA-MB-231; [11]) was 0.24 ± 0.03 µM and the IC50 (MRC-5) was 0.17 ± 0.04 µM. The “in vivo antitumor activity, peritoneal carcinomatosis” value [8] was “no antitumor activity”, the “log P” value [9] was “–1.7 ± 0.2” and the “amount of Pt associated with DNA” value [10] was 2.0 ± 0.2 pg Pt/µg DNA.
